“And” between values parts separate entries of the source, which are not always exact repeats. Identical values can stand only once. Like-named read-outs stand apart in the source and are kept apart here.
Experiments:
[1] = LC-MS/MS quantification of Cmin in plasma samples from breast cancer patients (clinical study CRO-2018-83); format: in vivo, human; settings: for concentration at 15 h / concentration at 30 h: human, plasma, oral; for concentration at 15 h: patient 7, sample 9, PALBO 125 mg/day; for concentration at 30 h: patient 8, sample 10, RIBO 600 mg/day + LETRO 2.5 mg/day
Experimental: Preparation of calibration curve and QCs samples was conducted through the following steps: 1) 5 μL of working solutions were added to 95 μL of blank human plasma (dilution 1:20) and vortexed for 10 s; 2) a 10 μL-aliquot of this mix was added with 80 μL of cold IS working solution (see “Standard solutions preparation” section), vortexed and then centrifuged for 15 min at 16200 g and 4°C; 3) 70 μL of the supernatant were transferred to a polypropylene tube for the following analysis. […] The preparation of patients’ samples was conducted as following: patient plasma was thawed at room temperature, vortexed for 10 s and centrifuged, for 10 min, at 3000 g and 4°C; 10 μL of plasma was then treated according to steps 2) and 3).
The HPLC system was a SIL-20AC XR auto-sampler and LC-20AD UFLC XR pumps (Shimadzu, Tokyo, Japan). The mobile phases (MP) consisted of ultrapure water with 0.1% HCOOH (phase A) and methanol/isopropanol (9:1, v/v) with 0.1% HCOOH (phase B). The chromatographic separation was obtained on the Luna Omega Polar C18 column ([…], 100 Å, 50 x 2.1 mm) coupled with a Security Guard Cartridge (Polar, C18, 4 x 2.0 mm), both provided by Phenomenex (Castel Maggiore (BO), Italy). The mass spectrometry system used for the detection was an API 4000 triple quadrupole (AB SCIEX, Massachusetts, USA) with a TurboIonSpray source operating in positive ion mode. To optimize source and compound dependent parameters, solutions of each analyte at the concentration of 100 ng/mL were used with a flow rate of 20 μL/min. Data were processed with Analyst 1.6.3 and the quantification of the peaks was done with MultiQuant 2.1 (software package AB SCIEX).
The exclusion criteria were to be non-collaborative and/or unreliable patients and refusal of informed consent. Patients were asked to periodically (every two months) collect plasma samples for the estimation of PALBO or RIBO and/or LETRO Cmin during their therapy treatment.
Plasma was obtained immediately by centrifugation of the blood samples at 3000 g for 10 min at 4°C. Then the obtained plasma was split into two independent aliquots and stored at -80°C in two different freezers.
At present, each of the 10 patients’ samples collected were quantified in 2 separate runs during 2 different working days, to further assess the reproducibility of the proposed method. In fact, as recently introduced in the last version of the FDA guideline, incurred samples re-analysis (ISR) is necessary to show the reliability of the reported analyte concentrations obtained with a bioanalytical method. ISR is conducted by repeating the analysis of a subset of patients’ samples in separate runs. The two analyses can be considered equivalent if the percentage difference [expressed as: (repeat-original)*100/mean] between the first and the second concentration measured is within ±20% for at least 67% of the samples [23, 24].

[2] = Bench-top stability in human plasma, 4 h at room temperature; format: in vitro ADME; settings: for Acc. %, T = 4h (RT): % of nominal
Experimental: (§1) Stability tests were conducted using QCs prepared in triplicate at each concentration (L, M, H): bench-top stability was investigated after 4 h at room temperature; stability of the deproteinized QCs was evaluated in autosampler set at 4 °C re-analysing the samples 24, 48, and 72 h after the first injection; freeze/thaw stability was assessed by analysing three freshly prepared aliquots of each QCs concentration, and then again after one and two freeze/thaw cycles.

[3] = Stability of deproteinized QCs in autosampler at 4 °C; format: physicochemical; settings: for Acc. %, T = 72 h in autosampler (4°C): % of nominal
Experimental: as §1

[4] = Long term stability in human plasma at -80°C; format: in vitro ADME; settings: for Acc. %, stored at -80ºC over 2 months (plasma): % of nominal
[5] = Long term stability of working solutions in methanol at -20°C; format: physicochemical; settings: for Acc. %, stored at -20ºC over 2 months (methanol): % of nominal
[6] = cited from earlier work
[7] = design: method as in PMID 29862467; settings: exposure-efficacy analysis in patients; cited from earlier work
[8] = 30 h from last pills intake, read-out: I quantif. plasma concentration (Cmin)
[9] = reanalysis in second run, read-out: II quantif. plasma concentration (Cmin)
[10] = plasma QC high: nominal 200.00 PALBO / 8000.00 RIBO / 400.00 LETRO ng/mL
[11] = plasma QC low: nominal 0.50 PALBO / 20.00 RIBO / 1.00 LETRO ng/mL
[12] = plasma QC medium: nominal 20.00 PALBO / 800.00 RIBO / 40.00 LETRO ng/mL
[13] = deproteinized QC high: nominal 200.00 PALBO / 8000.00 RIBO / 400.00 LETRO ng/mL
[14] = deproteinized QC low: nominal 0.50 PALBO / 20.00 RIBO / 1.00 LETRO ng/mL
[15] = deproteinized QC medium: nominal 20.00 PALBO / 800.00 RIBO / 40.00 LETRO ng/mL
[16] = QC high: nominal 200.00 PALBO / 8000.00 RIBO / 400.00 LETRO ng/mL
[17] = QC low: nominal 0.50 PALBO / 20.00 RIBO / 1.00 LETRO ng/mL
[18] = QC medium: nominal 20.00 PALBO / 800.00 RIBO / 40.00 LETRO ng/mL

SMILES	concentration at 30 h [1, 8] [ng/mL]	concentration at 30 h [1, 9] [ng/mL]	Mean ± SD measured concentration, T = 4h (RT) [2, 10] [ng/mL]	Mean ± SD measured concentration, T = 4h (RT) [2, 11] [ng/mL]	Mean ± SD measured concentration, T = 4h (RT) [2, 12] [ng/mL]	Mean ± SD measured concentration, T = 72 h in autosampler (4°C) [3, 13] [ng/mL]	Acc. %, T = 72 h in autosampler (4°C) [3, 13] [%]	Mean ± SD measured concentration, T = 72 h in autosampler (4°C) [3, 14] [ng/mL]	Acc. %, T = 72 h in autosampler (4°C) [3, 14] [%]	Mean ± SD measured concentration, T = 72 h in autosampler (4°C) [3, 15] [ng/mL]	Acc. %, T = 72 h in autosampler (4°C) [3, 15] [%]	Mean ± SD measured concentration, stored at -80ºC over 2 months (plasma) [4, 16] [ng/mL]	Acc. %, stored at -80ºC over 2 months (plasma) [4, 16] [%]	Mean ± SD measured concentration, stored at -80ºC over 2 months (plasma) [4, 17] [ng/mL]	Acc. %, stored at -80ºC over 2 months (plasma) [4, 17] [%]	Mean ± SD measured concentration, stored at -80ºC over 2 months (plasma) [4, 18] [ng/mL]	Acc. %, stored at -80ºC over 2 months (plasma) [4, 18] [%]	Mean ± SD measured concentration, stored at -20ºC over 2 months (methanol) [5, 16] [ng/mL]	Acc. %, stored at -20ºC over 2 months (methanol) [5, 16] [%]	Mean ± SD measured concentration, stored at -20ºC over 2 months (methanol) [5, 17] [ng/mL]	other results
N#Cc1ccc(C(c2ccc(C#N)cc2)n2cncn2)cc1 [LETRO, letrozole]	46.8	46.9	372.54 ± 24.58	0.88 ± 0.06	37.95 ± 1.78	426.23 ± 4.43	106.6	0.94 ± 0.07	93.9	44.45 ± 0.19	111.1	386.66 ± 6.61	96.7	0.88 ± 0.01	88.3	39.58 ± 0.90	99.0	413.47 ± 6.07	103.4	1.05 ± 0.03	concentration at 15 h ([1]; LETRO 2.5 mg/day, last pill intake 15 h before sampling, read-out: I quantif. plasma concentration (Cmin)): 2.8 ng/mL; concentration at 15 h ([1]; LETRO 2.5 mg/day, reanalysis in second run, read-out: II quantif. plasma concentration (Cmin)): 2.9 ng/mL; II quantif. plasma concentration (Cmin) ([1]; patient 6, sample 8, PALBO 125 mg/day, LETRO 2.5 mg/day, reanalysis in second run): 67.8 ng/mL; Acc. %, T = 4h (RT) [2, 10]: 93.1%; Acc. %, T = 4h (RT) [2, 11]: 88.2%; Acc. %, T = 4h (RT) [2, 12]: 94.9%; Acc. %, stored at -20ºC over 2 months (methanol) [5, 17]: 105.1%; Mean ± SD measured concentration, stored at -20ºC over 2 months (methanol) [5, 18]: 44.12 ± 1.25 ng/mL; Acc. %, stored at -20ºC over 2 months (methanol) [5, 18]: 110.3%; LETRO mean plasma concentration (±SD) ([6]; ref 11 (Beer et al.)): 107.0 ng/mL and 107.0 ± 62.9 ng/mL; LETRO mean plasma concentration (range) ([6]; ref 22 (Desta et al.)): 89.7 (28.4–349.2) ng/mL; LETRO plasma concentration associated with longer time to tumour progression [7]: ≥ 85.6 ng/mL
CN(C)C(=O)c1cc2cnc(Nc3ccc(N4CCNCC4)cn3)nc2n1C1CCCC1 [RIBO, ribociclib]	396	419	7218.92 ± 402.94	18.86 ± 0.74	751.88 ± 27.56	8274.93 ± 207.29	103.4	21.24 ± 1.45	106.2	815.31 ± 36.72	101.9	7699.21 ± 117.73	96.2	21.10 ± 1.05	105.5	789.37 ± 28.89	98.7	8522.63 ± 68.65	106.5	19.52 ± 0.30	Acc. %, stored at -20ºC over 2 months (methanol) [5, 17]: 97.6%; Mean ± SD measured concentration, stored at -20ºC over 2 months (methanol) [5, 18]: 885.44 ± 35.25 ng/mL; Acc. %, stored at -20ºC over 2 months (methanol) [5, 18]: 110.7%; in vivo RIBO plasma concentration (CV), Cmin, population mean ([6]; patients, 20 (ref 19)): 711 ng/mL and 711 (72.9) ng/mL; in vivo RIBO plasma concentration (CV), upper end of range ([6]; patients): 3500 (65.8) ng/mL

Source: article PMC7006908 (PLoS ONE, 2020)
